Consider five compounds from article PMC10054465, “Design, Synthesis, and Antiviral Activities of New Benzotriazole-Based Derivatives” (Pharmaceuticals, 2023).

A short description of data set [1]: Cytotoxicity in mock-infected MDBK cells (MTT). Particulars: cattle (Bos taurus), mock-infected.
Another data set relates to Sb-1. Briefly: microbe, parasite or virus in culture. The format is cell-based, human enterovirus C (poliovirus type-1). The following applies: Enterovirus C, Vero 76, read-out: Sb-1 EC50.
A further data set concerns YFV. Briefly: microbe, parasite or virus in culture. It is filed as cell-based. Particulars: Yellow fever virus, BHK-21, read-out: YFV EC50.
Data set [2] has as its system CVB5. Briefly: Time of addition assay. The format is cell-based, human enterovirus B (coxsackievirus B5). Particulars: 20 µM.
The subject of a further data set is CVB5 virions. The data set is described as follows: Virucidal activity assay. The format is cell-based, human enterovirus B (coxsackievirus B5). Particulars: 20 µM, 4 °C or 37 °C.
The test system of another data set is Reo-1. Briefly: microbe, parasite or virus in culture. Particulars: Reovirus sp., BHK-21, read-out: Reo-1 EC50. The format is cell-based, Reovirus type-1.
The test system of data set [3] is CVB5. The data set is described as follows: microbe, parasite or virus in culture. The format is cell-based, human enterovirus B (coxsackievirus B5). The following applies: Enterovirus B, CVB5, Vero 76, read-out: CVB5 EC50.
The next data set has as its system VSV. Briefly: microbe, parasite or virus in culture. It is filed as cell-based. Particulars: Vesicular stomatitis virus, Vero 76, read-out: VSV EC50.
For another data set, the system named is BVDV. Briefly: microbe, parasite or virus in culture. It is filed as cell-based. Particulars: Bovine viral diarrhea virus isolates and strains, MDBK, read-out: BVDV EC50.
The test system of another data set is RSV. The data set is described as follows: microbe, parasite or virus in culture. Particulars: human respiratory syncytial virus, Vero 76, read-out: RSV EC50. The format is cell-based.
Another data set relates to HSV-1. The data set is described as follows: microbe, parasite or virus in culture. It is filed as cell-based, human herpesvirus 1. Particulars: Human alphaherpesvirus 1, Vero 76, read-out: HSV-1 EC50.
In data set [4] the test system is CVB5. Briefly: Cell pre-treatment assay (viral yield by plaque assay). The format is cell-based, human enterovirus B (coxsackievirus B5). The following applies: Vero-76 pre-treated 2 h with 20 µM, then CVB5; not treated control 3 × 10^5 PFU/mL.
Data set [5] can be described thus: Cytotoxicity in mock-infected Vero-76 monolayers. The following applies: African green monkey (Cercopithecus aethiops).
The test system of another data set is VV. The data set is described as follows: microbe, parasite or virus in culture. The format is cell-based. The following applies: Orthopoxvirus vaccinia, Vero 76, read-out: VV EC50.
A short description of data set [6]: Cytotoxicity in mock-infected BHK-21 monolayers (MTT). Particulars: Syrian hamster (Mesocricetus auratus), BHK-21 cell monolayers, mock-infected.
A further data set relates to CVB. The following applies: cited from earlier work.
[7] abbreviates: African green monkey (Cercopithecus aethiops).
The mark [8] stands for this setting: Vero-76 cell monolayers, mock-infected.

Molecules are shown by their SMILES. Entries after “also recorded” stand apart in the source; their conditions may differ. Where two headings read alike, the source gives them in different places.

Usually CC50 stands for the concentration giving 50% cytotoxicity. For orientation: EC50 means the concentration giving half of the maximal effect. With `CC(C)(C)C(=O)Nc1ccc(Cn2nnc3c(F)cccc32)cc1` [18e, N-(4-((4-fluoro-1H-benzo[d][1,2,3]triazol-1-yl)methyl)phenyl)pivalamide], the CC50 was above 100 µM in data set [1], above 100 µM in data set [5] (setting [8]), 9 µM in [5] (Vero-76 cells) and above 100 µM in data set [6]. The EC50 with Sb-1 was above 100 µM; with YFV it was above 100 µM; with Reo-1, above 100 µM; in the data set on CVB5 [3] it was 12.4 ± 0.6 µM; with VSV, above 100 µM; in the data set on BVDV, above 100 µM. Besides, the values for the EC50 in the data set on RSV, in the data set on HSV-1 and with VV were above 9 µM, 52 ± 9.2 µM and above 100 µM, respectively. In addition, the “antiviral effect, compound added during the infection period (in words)” value in the data set with CVB5 [2] (Vero-76, CVB5 m.o.i. 1) is given as “antiviral effect was kept”. In addition, the “titer reduction, compound added during subsequent steps of the replication cycle (in words)” value in the data set on CVB5 [2] (Vero-76, CVB5 m.o.i. 1, post infection) is “No titer reduction”. In addition, in the data set with CVB5 virions, the “virucidal effect on CVB5 titer (in words)” value is listed as “no virucidal activity; also recorded: no difference between the titers”. In addition, the “% Late apoptotic cells” value in the data set with Vero-76 cells is listed as 8.3 ± 0.34%; in the data set with Vero-76 cells (setting [7]), 1.03 ± 0.34%. Further, the “% Live cells” value in the data set with Vero-76 cells is listed as 72.87 ± 1.21%; in the data set on Vero-76 cells (setting [7]), 94.45 ± 2.55%. The “% Necrotic cells” value in the data set with Vero-76 cells was found to be 12.44 ± 2.35%; in the data set on Vero-76 cells (setting [7]), 4.12 ± 2.3%. Moreover, in the data set on CVB5 [4], the “viral load after cell pre-treatment” value is reported as 7× 10^4 PFU/mL. In addition, the “TEER values versus control (in words)” value in the data set with Caco-2 cell monolayers is on record as “did not significantly differ from control values”.
On to `O=C(Nc1cccc(Cn2nnc3cc(Cl)c(Cl)cc32)c1)c1ccc(Cl)cc1` [43a, N-(3-((5,6-dichloro-1H-benzo[d][1,2,3]triazol-1-yl)methyl)phenyl)-4-chlorobenzamide], for which the half-maximal cytotoxic concentration (CC50) is above 100 µM in data set [1], above 100 µM in data set [5] (setting [8]), 9.2 µM in data set [5] (Vero-76 cells) and above 100 µM in data set [6]. Further, the EC50 was above 100 µM in the data set with Sb-1; above 100 µM in the data set with YFV; above 100 µM in the data set on Reo-1; 9 ± 1.6 µM with CVB5 [3]; above 100 µM in the data set on VSV; above 100 µM in the data set with BVDV. The EC50 in the data set on RSV was above 9.2 µM; in the data set on HSV-1 it was above 100 µM; in the data set with VV, above 100 µM. The “TEER values versus control (in words)” value in the data set with Caco-2 cell monolayers is “did not significantly differ from control values”.
One may read the melting point as the temperature, or range, at which the solid turns liquid. `CCCNC(=O)Nc1ccc(Cn2nnc3cc(C)c(C)cc32)cc1` [99b] had a melting point of 190 to 192 °C. In data set [1], the CC50 is above 100 µM. Also, the EC50 in the data set on Sb-1 is above 100 µM. For the same compound, the EC50 in the data set on YFV was above 100 µM. Besides, the concentration giving a half-maximal response (EC50) in the data set with Reo-1 is above 100 µM. Also, the concentration giving a half-maximal response (EC50) in the data set with CVB5 [3] was determined as 16 µM. Also, the EC50 in the data set with VSV was above 100 µM. Further, the EC50 with BVDV is above 100 µM. In the data set on RSV, the half-maximal effective concentration (EC50) was above 100 µM. Further, the half-maximal effective concentration (EC50) with HSV-1 was above 100 µM. This compound also came in with a CC50 in data set [5] (setting [8]) above 100 µM. Also, in the data set on VV, the concentration giving a half-maximal response (EC50) is above 100 µM. In [6], this compound gave a cytotoxic concentration (CC50) above 100 µM.
Regarding `O=C(CCC(=O)Nc1ccc(-n2nnc3cc(Cl)c(Cl)cc32)cc1)Nc1ccc(-n2nnc3cc(Cl)c(Cl)cc32)cc1` [A, N1,N4-bis(4-(5,6-dichloro-1H-benzo[d][1,2,3]triazol-1-yl)phenyl)succinamide], in the data set with CVB, the “activity against CVB (in words)” value is on record as “not active”.
For the compound `O=C(CCC(=O)Nc1ccc(Cn2nnc3cc(Cl)c(Cl)cc32)cc1)Nc1ccc(Cn2nnc3cc(Cl)c(Cl)cc32)cc1` [B, N1,N4-bis(4-((5,6-dichloro-1H-benzo[d][1,2,3]triazol-1-yl)methyl)phenyl)succinamide], in the data set on CVB, the EC50 was 23 µM.
